Measured values: ChEMBL document CHEMBL1138629, “Synthesis of 61-bis(1-adamantylcarbamoyl)-1,2-methano[60]fullerene and its antagonistic effect on haloperidol-induced catalepsy in mice” (Bioorg Med Chem Lett, 2004)

Target: T1, Fatty-acid amide hydrolase 1 (Mus musculus, UniProt O08914)
T1 sequence (O08914 whole entry): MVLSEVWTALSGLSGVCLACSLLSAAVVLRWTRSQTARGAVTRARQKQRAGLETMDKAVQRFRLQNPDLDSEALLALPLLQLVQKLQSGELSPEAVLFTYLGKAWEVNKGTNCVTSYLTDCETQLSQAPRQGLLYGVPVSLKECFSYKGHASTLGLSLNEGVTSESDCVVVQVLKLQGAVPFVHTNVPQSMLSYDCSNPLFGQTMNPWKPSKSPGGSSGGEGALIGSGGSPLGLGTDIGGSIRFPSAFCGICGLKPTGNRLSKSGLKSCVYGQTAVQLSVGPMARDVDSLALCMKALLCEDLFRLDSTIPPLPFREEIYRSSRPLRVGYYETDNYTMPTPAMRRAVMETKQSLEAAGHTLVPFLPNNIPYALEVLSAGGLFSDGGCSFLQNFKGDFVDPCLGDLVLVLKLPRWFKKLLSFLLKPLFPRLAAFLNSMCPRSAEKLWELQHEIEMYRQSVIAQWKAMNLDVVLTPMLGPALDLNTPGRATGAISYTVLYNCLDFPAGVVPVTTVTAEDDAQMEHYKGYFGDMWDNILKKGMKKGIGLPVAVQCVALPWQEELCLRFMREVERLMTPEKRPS
Experiment: Inhibitory concentration against mouse fatty acid amide hydrolase
Format: functional

SMILES: NC(=O)CCC/C=C\C/C=C\C/C=C\C/C=C\CCCCCC12CC3CC(CC(C3)C1)C2
- IC50: 37.4 µM
